A short description of the series: Dissolution time: time required fully to dissolve 1 gram of powder into 100 ml of water. It counts as physicochemical. Particulars: 1 gram into 100 ml of water at 20° C.; only with vigorous stirring. The procedure: The dissolution rate of the resulting powder is defined by the dissolution time, viz. the time required fully to dissolve 1 gram thereof into 100 ml of water at 20° C. The dissolution time of the calcium salts compositions of the invention is not more than 60 seconds and preferably not more than 10 seconds. The dissolution time of the powder obtained according to Example 1 is found to be 3.036 sec, while the dissolution time of the untreated calcium gluconate granules is 1.3 minutes, and this only when vigorous stirring is carried out to hasten as much as possible the dissolution. Therefore the powder of Example 1 is an instantly soluble powder, as this expression is to be construed in this, specification.

Substance calcium gluconate yielded a dissolution time of 1.3 min.

The values are drawn from US20020065317A1, “Calcium salt compositions having improved solubility and method for preparing them” (priority 1998, published 2002).
